Data published in US8097640B2, “Prophylactic or therapeutic agent for diabetic maculopathy” (Sanwa Kagaku Kenkyusho Co., Ltd., priority 2004, dated 2012).
Where “and” joins values, the source holds several entries; their conditions need not be identical. Identical values can stand only once.

Tests used:
[1] = tested on: edema in the macular central fovea of diabetic monkeys; test: Monkey Test: thickness and volume of macular central fovea (OCT) after ischemia/reperfusion in STZ diabetic monkeys; type: in vivo, Macaca fascicularis
Experimental: Diabetes mellitus was induced in male monkeys (Macaca fascicularis) (3-year-old) weighing about 2.1 to 2.4 kg by intravenously injecting STZ into their foreleg vein at the dose of 80 mg/kg. Two days after the treatment with STZ, blood glucose level was measured, and monkeys with at least 200 mg/dl glucose were then used in the experiment as diabetic monkeys. Insulin was administered subcutaneously once or twice per day into monkeys showing a blood glucose level of 300 mg/dl. The set groups were the following 3 groups, and from 2 weeks after the treatment with STZ, 5% gum arabic solution or SNK-860 solution was orally administered once a day. • (1) Normal control group (4 monkeys): Given 5% gum arabic solution in a ratio of 5 ml/kg. • (2) Diabetic control group (6 monkeys): Given 5% gum arabic solution in a ratio of 5 ml/kg. • (3) Diabetic group given 32 mg/kg SNK-860 (4 monkeys): Given a suspension of SNK-860 (32 mg/5 ml) in 5% gum arabic solution in a ratio of 5 ml/kg.
After administration for 2 weeks, intraocular ischemic treatment was carried out as described below, and after the treatment was finished, the animals were maintained as usual for 7 days. Before the ischemic treatment and 7 days after treatment, the thickness and volume of the macular central fovea (in the diameter range of 1 mm from the center of the macula lutea) were measured by an OCT scanner (Stratus OCT, Carl Zeiss). Administration of the pharmacological agent was also conducted for the period (7 days) of reperfusion after the ischemic treatment.
Retinal ischemia produced by increasing intraocular pressure was in accordance with Efficacy Pharmaceutical Test Example 1. However, the size of the needle used was 25 G×½ (Terumo). After a mydriatic (Mydrin P manufactured by Santen Pharmaceutical) was dropped onto the right eye, the monkey was anesthetized by intramuscularly administering ketaral (Sankyo Life Tech). Subsequently, a local anesthetic (Benoxyl eye drop 0.4%) was dropped onto the eye, and the monkey was prevented from blinking with an eyelid speculum. Anesthesia with ketaral was additionally carried out when necessary.
The thickness and volume of the macular central fovea were measured in the following manner. After a mydriatic (Mydrin P) was dropped onto the right eye of the monkey to dilate the pupil of the eye sufficiently, the monkey was anesthetized by intramuscularly administering Ketaral. Thereafter, the monkey was allowed to sit on a monkey chair and the head was fixed. […] On the basis of the resulting cross-sectional macular image, the thickness and volume of the macular central fovea were analyzed.

[2] = tested on: nuclei in the inner retinal layer (ganglion cell layer) of diabetic rats; test: Rat Test 1: loss of nuclei from ganglion cells after ischemia/reperfusion in STZ diabetic rats; type: in vivo, Sprague Dawley rats; conditions: 32 mg/kg oral once a day, 4 rats
Experimental: (§1) Diabetes mellitus was induced in male Sprague Dawley rats (8-week-old) weighing about 250 g by injecting streptozotocin (STZ manufactured by Sigma) intravenously into their tail at the dose of 60 mg/kg. One week after the treatment with STZ, serum glucose was measured, and rats with at least 300 mg/dl glucose were then used in the experiment as diabetic rats. The set groups were the following 3 groups, and after 2 weeks after the treatment with STZ, 5% gum arabic solution or SNK-860 solution was orally administered once a day. • (1) Normal control group (5 rats): Given 5% gum arabic solution in a ratio of 5 ml/kg. • (2) Diabetic control group (7 rats): Given 5% gum arabic solution in a ratio of 5 ml/kg. • (3) Diabetic group given 32 mg/kg SNK-860 (4 rats): Given a suspension of SNK-860 (32 mg/5 ml) in 5% gum arabic solution in a ratio of 5 ml/kg.
(§2) After administration for 2 weeks, intraocular ischemia was caused by the treatment described below. After the treatment was finished, the animals were maintained as usual for 2 days, and thereafter, the eyeballs were excised and histologically evaluated. Administration of the pharmacological agent was also conducted for a period (2 days) of reperfusion after ischemic treatment. […]
(§3) In each of the resulting retinal images, the thickness of the visual cell layer was measured. […]

[3] = tested on: patients with diabetic macular edema; test: Clinical Results: macula lutea thickness (OCT), corrected visual acuity and safety in patients with diabetic macular edema; type: in vivo, humans
Experimental: Among patients with diabetic maculopathy, 10 patients with diabetic macular edema having a retinal thickening or a hard exudates in a posterior pole of the retina were subjects. SNK-860 was orally administered in a dose of 30 mg (2 tablets each containing 15 mg SNK-860) once a day before breakfast for 8 weeks. During this test period, simultaneous use of eparlestat, intravitreal injection and sub-Tenon injection of an adrenal cortical hormone, and photocoagulation and vitrectomy were prohibited. Basic therapy of diabetes mellitus was carried out so as to give good blood glucose control throughout the test period.
Evaluation was carried out in terms of the thickness of the macular central fovea (in the diameter range of 1 mm from the center of macula lutea) and the thickness at the center of the central fovea measured by optical coherence tomography (OCT, Carl Zeiss), as well as corrected visual acuity (Log MAR).
Log MAR (Log Minimum Angle of Resolution) is one kind of logarithmic visual acuity, which is visual acuity expressed in logarithmic minimum angle of resolution. Decimal visual acuity 1.0 used frequently in Japan is 0.0 in terms of Log MAR, and decimal visual acuity 0.1 is 1.0 in Log MAR. A log MAR visual acuity of 0.1 to 0.5 corresponds to a decimal visual acuity of 0.8 to 0.32.

[4] = tested on: edema in a retinal visual cell layer of diabetic rats; test: Rat Test 2: edema in retinal visual cell layer after intraocular ischemia/reperfusion in STZ diabetic rats; type: in vivo
Experimental: The test was carried out in accordance with Efficacy Pharmacological Test Example 1. The set groups were the following 4 groups, and from 2 weeks after the treatment with STZ, 5% gum arabic solution or SNK-860 solution was orally administered once a day. • (1) Normal control group (10 rats): Given 5% gum arabic solution in a ratio of 5 ml/kg. • (2) Diabetic control group (9 rats): Given 5% gum arabic solution in a ratio of 5 ml/kg. • (3) Diabetic group given 2 mg/kg SNK-860 (10 rats): Given a suspension of SNK-860 (2 mg/5 ml) in 5% gum arabic solution in a ratio of 5 ml/kg. • (4) Diabetic group given 32 mg/kg SNK-860 (9 rats): Given a suspension of SNK-860 (32 mg/5 ml) in 5% gum arabic solution in a ratio of 5 ml/kg. Retinal ischemia produced by increasing the intraocular pressure was in accordance with Efficacy Pharmaceutical Test Example 1. Histological evaluation was also in accordance with Efficacy Pharmaceutical Test Example 1.

[5] = tested on: edema in a retinal visual cell layer of diabetic rats; test: Rat Test 1: edema in retinal visual cell layer after intraocular ischemia/reperfusion in STZ diabetic rats; type: in vivo, Sprague Dawley rats; conditions: 32 mg/kg oral once a day, 2 weeks plus 2 days reperfusion
Experimental: as §1, §2, §3

[6] = 32 mg/kg oral once a day for 2 weeks, before ischemia
[7] = 32 mg/kg oral once a day, 7 days after ischemia
[8] = 30 mg oral once a day for 8 weeks, 12 eyes, mean ± standard deviation
[9] = 30 mg oral once a day for 8 weeks, out of 12 eyes
[10] = baseline before administration, 12 eyes in 10 cases, mean ± standard deviation

Compound: NC(=O)[C@@H]1C[C@]2(NC(=O)NC2=O)c2cc(F)ccc2O1 [SNK-860, (2S,4S)-6-Fluoro-2′,5′-dioxospiro[chroman-4,4′-imidazolidine]-2-carboxamide]
- formation of edema in macular central fovea ([1]; 32 mg/kg oral once a day): formation of edema or its change was not observed
- Average macula lutea thickness, Before ischemia [1, 6]: 157 ± 6 μm
- Average macula lutea volume, Before ischemia [1, 6]: 0.123 ± 0.005 mm^3
- Average macula lutea thickness, 7 days after ischemia [1, 7]: 158 ± 2 μm
- Average macula lutea volume, 7 days after ischemia [1, 7]: 0.124 ± 0.001 mm^3
- loss of nuclei from ganglion cells [2]: loss of nuclei was not observed in all 4 rats
- Corrected visual acuity, Week 8 [3, 8]: 0.24 Log MAR and 0.24 ± 0.20 Log MAR
- Macula lutea thickness, Center of central fovea, Week 8 [3, 8]: 298.7 μm and 298.7 ± 90.6 μm
- Macula lutea thickness, Central fovea (diameter: 1 mm), Week 8 [3, 8]: 300.4 μm and 300.4 ± 74.4 μm
- Corrected visual acuity (eye number), 1-stage deterioration [3, 9]: 1 eyes
- Corrected visual acuity (eye number), 1-stage improvement [3, 9]: 2 eyes
- Corrected visual acuity (eye number), 2-stage improvement [3, 9]: 3 eyes
- Corrected visual acuity (eye number), Unchanged [3, 9]: 6 eyes
- side effects (safety) ([3]; 30 mg oral once a day for 8 weeks, patients): no particularly problematic side effects were recognized
- Macula lutea thickness, Center of central fovea, When initiated [3, 10]: 323.1 μm and 323.1 ± 111.4 μm
- Macula lutea thickness, Central fovea (diameter: 1 mm), When initiated [3, 10]: 324.3 μm and 324.3 ± 87.7 μm
- Corrected visual acuity, When initiated ([3]; baseline before administration, 12 eyes, mean ± standard deviation): 0.30 Log MAR and 0.30 ± 0.22 Log MAR
- inhibitory action on edema in visual cell layer ([4]; 2 mg/kg oral once a day): no inhibitory action on edema was observed
- inhibitory action on edema in visual cell layer ([4]; 32 mg/kg oral once a day): an evident inhibitory action on edema was observed
- edema / thickness of the visual cell layer (ischemic/re-perfused eye vs untreated eye) [5]: no edema was observed
